From patent publication US6355799B1, “Substituted benzene compounds, process for their preparation, and herbicidal and defoliant compositions containing them” (ISK Americas Incorporated, priority 1997, dated 2002)

Tests used:
Type in all cases: in vivo
[1] = tested on: redroot pigweed (Amaranthus retroflexus, AMARE); experiment: Pre-emerge test, greenhouse herbicide activity screening; conditions: rated 14 days after application, 0 = no damage, 100 = complete death
Summary of the method: (§1)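 Compounds in acetone were track-sprayed at 15-1000 g ai/ha (187 l/ha) on sandy loam pots: pre-emerge one day after seeding, post-emerge at 2-3 leaf stage with 0.25% v/v non-ionic surfactant. Phytotoxicity was rated 14 days later on a 0 (no damage) to 100 (complete death) scale.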

[2] = tested on: barnyardgrass (Echinochloa crus-galli, ECHCG); experiment: as above; conditions: rated 14 days after application, 0 = no damage, 100 = complete death
Summary of the method: (§2)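 Fourteen days after spraying, crop and weed injury was graded visually from 0, no effect, to 100, every plant dead. Test substances were dissolved in acetone and applied at 15–1000 g ai/ha with a flat-fan nozzle. Application was either pre-emergence, one day after sowing, or post-emergence at the 2–3 leaf stage.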

[3] = tested on: green foxtail (Setaria viridis, SETVI); experiment: as above; conditions: rated 14 days after application, 0 = no damage, 100 = complete death
Summary of the method: as §2

[4] = tested on: ivyleaf morningglory (Ipomoea hederacea, IPOHE); experiment: as above; conditions: rated 14 days after application, 0 = no damage, 100 = complete death
Summary of the method: as §2

[5] = tested on: johnsongrass (Sorghum halepense, SORHA); experiment: as above; conditions: rated 14 days after application, 0 = no damage, 100 = complete death
Summary of the method: as §2

[6] = tested on: lambsquarters (Chenopodium album, CHEAL); experiment: as above; conditions: rated 14 days after application, 0 = no damage, 100 = complete death
Summary of the method: as §2

[7] = tested on: large crabgrass (Digitaria sanguinalis, DIGSA); experiment: as above; conditions: rated 14 days after application, 0 = no damage, 100 = complete death
Summary of the method: as §2

[8] = tested on: sicklepod (Cassia obtusifolia, CASOB); experiment: as above; conditions: rated 14 days after application, 0 = no damage, 100 = complete death
Summary of the method: as §2

[9] = tested on: velvetleaf (Abutilon theophrasti, ABUTH); experiment: as above; conditions: rated 14 days after application, 0 = no damage, 100 = complete death
Summary of the method: as §2

[10] = tested on: field corn (Zea mays L., var. Dekalb 535, CORN); experiment: Pre-emerge test, crop safety; conditions: rated 14 days after application, 0 = no damage, 100 = complete death
Summary of the method: (§3)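 Plants grown in 10 cm pots of sandy loam mix received acetone-dissolved compounds through a moving flat-fan nozzle. Doses ranged from 15 to 1000 g ai/ha. Pre-emerge pots were seeded one day earlier, post-emerge pots 8–21 days earlier. Fourteen days on, each pot was graded 0–100 for damage.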

[11] = tested on: upland rice (Oryza sp., var. Tebonnet, RICE); experiment: Pre-emerge test, crop safety; conditions: rated 14 days after application, 0 = no damage, 100 = complete death
Summary of the method: as §3

[12] = tested on: barnyardgrass (Echinochloa crus-galli, ECHCG); experiment: Post-emerge test, greenhouse herbicide activity screening; conditions: phytotoxicity rating 0-100 (0 no damage, 100 complete death), 14 days after application
Summary of the method: as §1

[13] = tested on: green foxtail (Setaria viridis, SETVI); experiment: as above; conditions: phytotoxicity rating 0-100 (0 no damage, 100 complete death), 14 days after application
Summary of the method: as §1

[14] = tested on: ivyleaf morningglory (Ipomoea hederacea, IPOHE); experiment: as above; conditions: phytotoxicity rating 0-100 (0 no damage, 100 complete death), 14 days after application
Summary of the method: as §1

[15] = tested on: johnsongrass (Sorghum halepense, SORHA); experiment: as above; conditions: phytotoxicity rating 0-100 (0 no damage, 100 complete death), 14 days after application
Summary of the method: as §1

[16] = tested on: lambsquarters (Chenopodium album, CHEAL); experiment: as above; conditions: phytotoxicity rating 0-100 (0 no damage, 100 complete death), 14 days after application
Summary of the method: as §1

[17] = tested on: large crabgrass (Digitaria sanguinalis, DIGSA); experiment: as above; conditions: phytotoxicity rating 0-100 (0 no damage, 100 complete death), 14 days after application
Summary of the method: as §1

[18] = tested on: redroot pigweed (Amaranthus retroflexus, AMARE); experiment: as above; conditions: phytotoxicity rating 0-100 (0 no damage, 100 complete death), 14 days after application
Summary of the method: as §1

[19] = tested on: sicklepod (Cassia obtusifolia, CASOB); experiment: as above; conditions: phytotoxicity rating 0-100 (0 no damage, 100 complete death), 14 days after application
Summary of the method: as §1

[20] = tested on: velvetleaf (Abutilon theophrasti, ABUTH); experiment: as above; conditions: phytotoxicity rating 0-100 (0 no damage, 100 complete death), 14 days after application
Summary of the method: as §1

[21] = tested on: field corn (Zea mays L., var. Dekalb 535, CORN); experiment: Post-emerge test, crop safety; conditions: phytotoxicity rating 0-100 (0 no damage, 100 complete death), 14 days after application
Summary of the method: as §2

[22] = tested on: upland rice (Oryza sp., var. Tebonnet, RICE); experiment: Post-emerge test, crop safety; conditions: phytotoxicity rating 0-100 (0 no damage, 100 complete death), 14 days after application
Summary of the method: as §2

For `COc1c(Cl)cc(F)c(-n2c(=O)cc(C(F)(F)F)n(C)c2=O)c1NC(=O)c1ccc(C)c(C)c1` [2-32], the “Pre-emerge Herbicidal Activity, phytotoxicity rating (0-100), AMARE” value ([1]; 63 g ai/ha) was 100, the “Pre-emerge Herbicidal Activity, phytotoxicity rating (0-100), AMARE” value ([1]; 250 g ai/ha) was 100 and the “Pre-emerge Herbicidal Activity, phytotoxicity rating (0-100), ECHCG” value ([2]; 63 g ai/ha) was 99. The “Pre-emerge Herbicidal Activity, phytotoxicity rating (0-100), ECHCG” value ([2]; 250 g ai/ha) was 100, the “Pre-emerge Herbicidal Activity, phytotoxicity rating (0-100), SETVI” value ([3]; 63 g ai/ha) was 100 and the “Pre-emerge Herbicidal Activity, phytotoxicity rating (0-100), SETVI” value ([3]; 250 g ai/ha) was 100. The “Pre-emerge Herbicidal Activity, phytotoxicity rating (0-100), IPOHE” value ([4]; 63 g ai/ha) was 100, the “Pre-emerge Herbicidal Activity, phytotoxicity rating (0-100), IPOHE” value ([4]; 250 g ai/ha) was 100 and the “Pre-emerge Herbicidal Activity, phytotoxicity rating (0-100), SORHA” value ([5]; 63 g ai/ha) was 90. The “Pre-emerge Herbicidal Activity, phytotoxicity rating (0-100), SORHA” value ([5]; 250 g ai/ha) was 100, the “Pre-emerge Herbicidal Activity, phytotoxicity rating (0-100), CHEAL” value ([6]; 63 g ai/ha) was 100 and the “Pre-emerge Herbicidal Activity, phytotoxicity rating (0-100), CHEAL” value ([6]; 250 g ai/ha) was 100. For the same compound, the “Pre-emerge Herbicidal Activity, phytotoxicity rating (0-100), DIGSA” value ([7]; 63 g ai/ha) was 100, the “Pre-emerge Herbicidal Activity, phytotoxicity rating (0-100), DIGSA” value ([7]; 250 g ai/ha) was 100 and the “Pre-emerge Herbicidal Activity, phytotoxicity rating (0-100), CASOB” value ([8]; 63 g ai/ha) was 95. The “Pre-emerge Herbicidal Activity, phytotoxicity rating (0-100), CASOB” value ([8]; 250 g ai/ha) was 100, the “Pre-emerge Herbicidal Activity, phytotoxicity rating (0-100), ABUTH” value ([9]; 63 g ai/ha) was 100 and the “Pre-emerge Herbicidal Activity, phytotoxicity rating (0-100), ABUTH” value ([9]; 250 g ai/ha) was 100. The “Pre-emerge phytotoxicity rating (0-100), crop damage, CORN” value ([10]; 63 g ai/ha) was 40, the “Pre-emerge phytotoxicity rating (0-100), crop damage, CORN” value ([10]; 250 g ai/ha) was 95 and the “Pre-emerge phytotoxicity rating (0-100), crop damage, RICE” value ([11]; 63 g ai/ha) was 80. For the same compound, the “Pre-emerge phytotoxicity rating (0-100), crop damage, RICE” value ([11]; 250 g ai/ha) was 99, the “Post-emerge Herbicidal Activity ECHCG” value ([12]; 63 g ai/ha) was 0 and the “Post-emerge Herbicidal Activity ECHCG” value ([12]; 250 g ai/ha) was 90. For the same compound, the “Post-emerge Herbicidal Activity SETVI” value ([13]; 63 g ai/ha) was 0, the “Post-emerge Herbicidal Activity SETVI” value ([13]; 250 g ai/ha) was 90 and the “Post-emerge Herbicidal Activity IPOHE” value ([14]; 63 g ai/ha) was 100. For the same compound, the “Post-emerge Herbicidal Activity IPOHE” value ([14]; 250 g ai/ha) was 100, the “Post-emerge Herbicidal Activity SORHA” value ([15]; 63 g ai/ha) was 50 and the “Post-emerge Herbicidal Activity SORHA” value ([15]; 250 g ai/ha) was 95. For the same compound, the “Post-emerge Herbicidal Activity CHEAL” value ([16]; 63 g ai/ha) was 95, the “Post-emerge Herbicidal Activity CHEAL” value ([16]; 250 g ai/ha) was 100 and the “Post-emerge Herbicidal Activity DIGSA” value ([17]; 63 g ai/ha) was 0. The “Post-emerge Herbicidal Activity DIGSA” value ([17]; 250 g ai/ha) was 70, the “Post-emerge Herbicidal Activity AMARE” value ([18]; 63 g ai/ha) was 100 and the “Post-emerge Herbicidal Activity AMARE” value ([18]; 250 g ai/ha) was 100. For the same compound, the “Post-emerge Herbicidal Activity CASOB” value ([19]; 63 g ai/ha) was 80, the “Post-emerge Herbicidal Activity CASOB” value ([19]; 250 g ai/ha) was 100 and the “Post-emerge Herbicidal Activity ABUTH” value ([20]; 63 g ai/ha) was 100. The “Post-emerge Herbicidal Activity ABUTH” value ([20]; 250 g ai/ha) was 100, the “Post-emerge Herbicidal Activity CORN (crop damage)” value ([21]; 63 g ai/ha) was 30 and the “Post-emerge Herbicidal Activity CORN (crop damage)” value ([21]; 250 g ai/ha) was 95. For the same compound, the “Post-emerge Herbicidal Activity RICE (crop damage)” value ([22]; 63 g ai/ha) was 30 and the “Post-emerge Herbicidal Activity RICE (crop damage)” value ([22]; 250 g ai/ha) was 80.
